Data set [1] can be described thus: Solubility in a buffer solution at 50 mM Tris/HCl pH 7.4 (visual inspection). In kind it is physicochemical. How it is done:
The solubility of the substituted citrates (A1, A2, A3 and A4) was measured in a buffer solution.
In a buffer solution at 50 mM of Tris/HCl, pH 7.4 (1 mL), the substituted citrate in powder form (20 mg) is introduced. The tubes are stirred (rolling shaker) for 30 minutes at ambient temperature, then inspected visually. The pH is adjusted to 7.4±0.4.
The solubility of the compounds of the prior art (CE1 and CE2) was measured.
4 mL of a buffer solution at 50 mM of Tris/HCl at pH 7.4 were introduced into a glass tube, at ambient temperature. The compounds in powder form were added successively in the amount of 8 mg per addition. After each addition of compound, the tubes were stirred (rolling shaker) for 30 minutes at ambient temperature, then inspected visually. The pH is adjusted to 7.4±0.4.
The concentrations at which insoluble matter was observed are defined as being greater than the limit of solubility of the compound.

Data set [2] is described as follows: Solubility in the presence of insulin lispro 100 IU/mL (commercial Humalog, visual inspection). The conditions noted are these: commercial insulin lispro solution (Humalog) 100 IU/mL, aqueous with cosolvent or surfactant or cyclodextrin, thermodynamic from solid, pH 7.4±0.4, ambient temperature, 30 minutes stirring, read-out: Solubility (limit of solubility). In kind it is physicochemical. How it is done:
The solubility of the substituted citrates (A1, A2, A3 and A4) is measured in the presence of insulin lispro 100 U/mL. In a commercial solution of insulin lispro (Humalog®) (1 mL), the substituted citrate in powder form (20 mg) is introduced. The tube was stirred (rolling shaker) for 30 minutes at ambient temperature, then inspected visually. The pH is adjusted to 7.4±0.4.
The solubility of the compounds of the prior art was also measured in the presence of insulin lispro 100 U/mL. 1 mL of a commercial solution of Humalog was introduced into a glass tube, at ambient temperature. The compounds in powder form were added successively in the amount of 2 mg per addition. After each addition of compound, the tubes were stirred (rolling shaker) for 30 minutes at ambient temperature, then inspected visually. The pH is adjusted to 7.4±0.4.
The concentrations at which insoluble matter was observed are defined as being greater than the limit of solubility of the compound in the presence of insulin lispro 100 IU/mL.

The target of data set [3] is T1, hexameric R6 form of insulin lispro (Homo sapiens, UniProt P01308, K53P/P52K).
T1 construct: The insulin lispro has a strong signal at 240 nm characteristic of the hexameric R6 form; purchased Lilly
In words: Association state of the insulin lispro evaluated by circular dichroism (CD signal at 240 nm). The format is physicochemical. To be noted: insulin lispro 100 IU/mL (Humalog), pH 7.4; additive alone (EDTA 300 μM; substituted citrate 7.3 or 14.6 mg/mL). How it is done:
Circular dichroism makes it possible to study the secondary and quaternary structure of the insulin. The monomers of insulin self-organize to form dimers and hexamers. […] There are two hexameric forms, R6 form and T6 form. […] The loss of the signal at 240 nm is connected with a destabilization of the hexamer and the conversion from R6 to T6.
For a final volume of 100 mL of formulation, with a concentration of substituted citrate at 7.3 mg/mL and a concentration of 9.3 mM of citrate, the different reagents are added in the quantities specified below and in the following order:
For a final volume of 100 mL of formulation, with a concentration of substituted citrate at 7.3 mg/mL, the different reagents are added in the quantities specified below and in the following order:
For a final volume of 100 mL of formulation, with a concentration of 300 μM of EDTA, the different reagents are added in the quantities specified below and in the following order:
(§1) Two measurement series were carried out.
Circular dichroism makes it possible to study the secondary and quaternary structures of insulin. The monomers of insulin self-organize to form dimers and hexamers. […]
For a final volume of 100 mL of formulation, with a concentration of substituted citrate at 7.3 mg/mL or 14.6 mg/mL, the different reagents are added in the quantities specified below and in the following order: […]
For orientation: Circular dichroism is the unequal absorption of left and right circularly polarised light.

The target in data set [4] is T2, hexameric R6 form of human insulin (Homo sapiens, UniProt P01308).
T2 construct: The human insulin has a strong signal at 240 nm, characteristic of the hexameric R6 form
The experiment in a line: Association state of human insulin evaluated by circular dichroism (CD signal at 240 nm). The format is physicochemical. To be noted: human insulin 100 IU/mL (Humulin R), pH 7.4; additive alone (EDTA 300 μM or 6 mM; substituted citrate 7.3 or 14.6 mg/mL). How it is done:
Circular dichroism makes it possible to study the secondary and quaternary structures of insulin. The monomers of insulin self-organize to form dimers and hexamers. […] There are two hexameric forms, the R6 form and the T6 form. […] The loss of the signal at 240 nm is connected with a destabilization of the hexamer and the conversion from R6 to T6.
For a final volume of 100 mL of formulation, with a concentration of substituted citrate at 7.3 mg/mL and a concentration of 9.3 mM of citrate, the different reagents are added in quantities specified below and in the following order:
For a final volume of 100 mL of formulation, with a concentration of substituted citrate at 7.3 mg/mL or 14.6 mg/mL, the different reagents are added in the quantities specified below and in the following order:
For a final volume of 100 mL of formulation, with a concentration of 300 μM or 6 mM of EDTA, the different reagents are added in the quantities specified below and in the following order:
as §1

The conditions of data set [5]: injected by the subcutaneous route, diabetic patients; cited from earlier work.
[6] abbreviates: 50 mM Tris/HCl buffer, aqueous buffer, thermodynamic from solid, buffer solution 50 mM Tris/HCl, pH 7.4, ambient temperature, 30 minutes stirring, read-out: Solubility (limit of solubility).
Where [7] appears, read: pH 7.4, thermodynamic from solid, medium not named at this place, sums up Tables 3 and 4 (Tris/HCl buffer and Humalog), read-out: limit of solubility (summary statement).

Peptide text beside a SMILES is read from it. * marks the point of attachment. Cbz = O=C(OCc1ccccc1)* Bounds are passed on as bounds.

T2 sequence (P01308 25-54 limits assumed): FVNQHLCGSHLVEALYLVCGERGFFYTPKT
T2 sequence (P01308 90-110 limits assumed): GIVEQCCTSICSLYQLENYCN
T1 sequence (P01308 25-54 P52K/K53P limits assumed): as the sequence (P01308 25-54 limits assumed) above, with P28K, K29P counted along it

A word on the solubility: it is the concentration that dissolves in the medium under given conditions. Consider `O=C(N[C@@H](Cc1ccccc1)C(=O)N[C@@H](Cc1ccccc1)C(=O)O)OCc1ccccc1` [CE1, N-Carbobenzoxy-L- phenylalanyl-L- phenylalanine] (Cbz-Phe-Phe-OH), for which the solubility at 30 min in data set [1] (setting [6]), in data set [1] (setting [7]) and in data set [2] was < 2000 µg/mL in each case.

For the compound `O=C(N[C@@H](Cc1ccccc1)C(=O)O)c1ccccc1` [CE2, Benzoyl-L- phenylalanine], the solubility at 30 min in data set [1] (setting [6]), in data set [1] (setting [7]) and in data set [2] was < 2000 µg/mL each time.

In the case of `O=C(O)CN(CCN(CC(=O)O)CC(=O)O)CC(=O)O` [EDTA], the “impact on the CD signal at 240 nm / R6 form of the insulin lispro hexamer” value in data set [3] is reported as “completely destructures the R6 form”. Further, the “impact on the CD signal at 240 nm / R6 form of the human insulin hexamer” value in data set [4] is “completely destructures the R6 form”.

Consider “human insulin: human insulin produced by genetic engineering, injected subcutaneously”, for which the “time after which a hypoglycemic effect is produced” value in data set [5] was 60 min.

The values are drawn from US10792335B2, “Rapid-acting insulin composition comprising a substituted citrate” (ADOCIA, priority 2015, dated 2020).
